# In patent publication US20240418723A1, “SEQUENTIAL TREATMENTS AND BIOMARKERS TO REVERSE RESISTANCE TO KINASE INHIBITORS” (Queen Mary University of London, priority 2021, published 2024):
# What was measured:
# [1] = results of clinical trials; unselected AML patient populations; cited from earlier work
# P31/Fuj cells = assay: Subcellular (cytosolic and nuclear/organelle) proteomics of LSD1i-treated P31/Fuj cells; format: cell-based
# Experimental: Isolation of nuclear/organelle and cytosolic fractions for proteomic analysis was carried out as described below.
# The isolation of cytosolic and nuclear/organelle proteins was performed as follows. Cells (10×10^6 cells per replicate) were resuspended in 1 mL hypotonic lysis buffer (containing 10 mM Tris-HCl pH 8.0, 1 mM KCl, 1.5 mM MgCl2, 1 mM DTT, 1 mM Na3VO4 and 1 mM NaF) and incubated at 4° C. for 30 minutes on a rotator. Nuclei/organelles were then pelleted (10,000×g, 10 min, 4° C.), after which the supernatant (cytosolic fraction) was transferred to fresh tubes. The nuclear/organelle fraction was further processed for proteomic analysis by adding 8M urea buffer as indicated above.
# Proteins in the supernatant were isolated by methanol/chloroform precipitation as follows. Methanol was added to the protein solution (at 4×initial volume), followed by chloroform (1×initial volume) and ddH2O (3×initial volume), vortexing after each addition. Samples were centrifuged for 2 min, 12,000×g, 4° C., and the top aqueous layer was removed. Additional methanol was added (4×initial volume) and samples vortexed. Samples were centrifuged for 3 min, 12,000×g, 4° C., and the supernatant removed. Protein pellets were dried briefly at RT, then resuspended in 8M urea buffer. Homogenisation, cysteine alkylation and tryptic digestion of the nuclear and cytosolic fractions were carried out as described above. Desalting was performed through C18 spin columns (Glygen Corporation, Cat. TT2C18) following the manufacturer's indications. Briefly, columns were equilibrated twice with 200 μL 70% ACN, and washed twice with 200 μL 1% ACN. Peptide samples were loaded onto the columns, then washed twice with 200 μL 1% ACN, with spinning. […] Columns were spun for 2 min at 1,500×g, 4° C. each time they were loaded.
# primary AML cells = assay: Ex-vivo sequential treatment of primary AML blasts co-cultured on MS-5 stromal feeder layer, Guava ViaCount, CDI; format: cell-based, human
# Experimental: We then examined whether, besides cell lines, LSD1i could also sensitise primary AML to kinase inhibitor treatment. We obtained CDI values from 17 AML blasts samples (6 normal, 5 complex and 6 MLL karyotypes) treated for 5 days with LSD1i followed by 3 days with either MEKi, PKC/FLT3i or DMSO control (FIGS. 2, H and I). Primary AML cells were cultured and treated in the presence of a feeder layer of bone marrow stromal cells, which, under control conditions, kept cells viable and proliferating throughout the course of the experiment.
# Umbilical cord bloods were purchased from Anthony Nolan. Mononuclear cells (MNCs) were isolated by Ficoll prior red blood cells (RBC) lysis buffer (BioLegend, catalog #420301). Cells were then stained with CD34 immunomagnetic positive selection kit (EasySep™ Human CD34 Positive Selection Kit II, StemCell technologies, catalog #17856, according to manufacturer instructions). Purity of CD34^+ cells isolated from MNCs was assessed by flow cytometry prior to long term storage in liquid nitrogen. For AML samples, patients gave informed consent for the storage and use of their blood cells for research purposes. Experiments were performed in accordance with the Local Research Ethics Committee, as previously described. Mononuclear cells from peripheral blood or bone marrow biopsies were isolated in the BCI tissue bank facility and stored in liquid nitrogen.
# Cell vials were thawed in 37° C. water bath and contents transferred to 15 mL Falcon tubes containing 4 mL of pre-warmed FBS with 40 ng/mL DNase (Sigma Aldrich D4513-1VL). Suspension was centrifuged at 300×g for 8 minutes, then supernatant was removed and cells resuspended in MyeloCult H5100 medium (Stemcell Technologies #05150) containing 1% P/S and supplemented with human IL-3 (Peprotech #200-03), human G-CSF (Peprotech #300-23) and human TPO (#300-18), each to a final concentration of 20 ng/mL. […]
# [2] = 0.5 μM LSD1i 5 days versus control (FIG. 21A)
# [3] = 0.5 μM LSD1i 5 days versus control (FIG. 21B)
# [4] = LSD1i, pathway analysis of proteomics data (FIG. 21 C, D)
structure (smiles),measurement,setting,value
O=C(O)c1ccc(CN2CCC(CN[C@@H]3C[C@H]3c3ccccc3)CC2)cc1 [GSK2879552],clinical tolerability as single agent,[1],has side effects
same,number of proteins decreasing in cytosolic fraction,P31/Fuj cells; [2],379
same,number of proteins increased in cytosolic fraction,P31/Fuj cells; [2],101
same,number of proteins decreasing in nuclear/organelle fraction,P31/Fuj cells; [3],334
same,number of proteins increased in nuclear/organelle fraction,P31/Fuj cells; [3],293
same,"expression of MAPK pathway enzymes including NRAS, KRAS, MEK1 and P90-S6K (RPS6KA1 isoform)","P31/Fuj cells; LSD1i 5 days (FIG. 7B, 22A)",increase
same,"expression of PI3K p110δ catalytic isoform, AKT2, and RAC1","P31/Fuj cells; LSD1i 5 days (FIG. 7B, 22A)",decrease
same,"proteins involved in the PI3K, insulin and c-MYC signaling pathways",P31/Fuj cells; [4],decrease
same,α and β-integrin signaling proteins,P31/Fuj cells; [4],increase
same,number of primary AML cases primed for MEKi treatment,"primary AML cells; LSD1i 5 days then MEKi 3 days, of the 17 primary AML cases (FIG. 2H)",8
same,number of primary AML cases primed for PKC/FLT3i treatment,"primary AML cells; LSD1i 5 days then PKC/FLT3i (midostaurin) 3 days, out of the 14 tested (FIG. 2I)",5
same,proportion of AML cases in which LSD1i->MEKi sequential treatment may be particularly effective,"primary AML cells; LSD1i->MEKi sequential treatment, primary AML",about 50%
